Here are results for 4 substances from patent publication US20020052354A1, “Paramagnetic DOTA derivatives, pharmaceutical agents that contain the latter, process for their production, and their use for MR imaging of necrosis and infarction” (Schering AG, priority 2000, published 2002).

In data set [1] the test system is infarction areas. The conditions noted are these: Circulation, Vol. 90, No. 4, 1994; cited from earlier work.
Data set [2] is described as follows: Determination of relaxivity R1 and R2 (Minispec PC 20). In kind it is physicochemical. The following applies: bovine plasma; 40° C.; 0.47 tesla; n = 3. On the procedure: Determination of Relaxivity R1 [Lmmol^−1 s^−1] and R2 [Lmmol^−1 s^−1]
Measurement at 40° C.; 0.47 tesla
T1-sequence 180°-TI-90°, inversion recovery

The conditions of data set [3]: in vivo; cited from earlier work.

For the substance Gd-mesoporphyrin [1c, DE 4232925], the “visualization of infarction areas” value in data set [1] is “readily visualize infarction areas”. Moreover, in data set [2], the “Relaxivity R1” value is reported as 15.3 ± 0.3 Lmmol^−1 s^−1 and the “Relaxivity R2” value stood at 16.3 ± 0.2 Lmmol^−1 s^−1. For the same substance, in data set [3], the “deposition in the skin (photosensitization and discoloration)” value is on record as “tend to be deposited in the skin”.

As to Mn-tetraphenyl-porphyrin [Mn-TTP], the “visualization of infarction areas” value in data set [1] is “readily visualize infarction areas”.

“N,N-Bis[1,4,7-tris(carboxylatomethyl)-1,4,7,10-tetraazacyclododecane-Gd-complex-10-(3-aza-4-oxo-hexan-5-ylic)-acid]-4,4′-methylene-N′,N′-bis[(3-methoxy)-2-naphtoic acid]-tetrahydrazide [Example 4]”: in data set [2], the “Relaxivity R1” value stood at 17.0 ± 0.1 Lmmol^−1 s^−1 and the “Relaxivity R2” value came to 20.2 ± 0.6 Lmmol^−1 s^−1.

With “N-(1,4,7,-Tris(carboxylatomethyl)-1,4,7,10-tetraazacyclododecane-Gd-complex-10-[1-carboxylate-1-[3-oxapropionic acid)-phenyl]-methyl-N′-[3-(methoxy),2-naphthoic acid]-dihydrazide, sodium salt [Example 11]”, in data set [2], the “Relaxivity R1” value is 22.8 ± 0.8 Lmmol^−1 s^−1 and the “Relaxivity R2” value worked out at 29.2 ± 1.1 Lmmol^−1 s^−1.
